Laboratory results published in publication PMC4589331, “Interactions of L-3,5,3'-Triiodothyronine, Allopregnanolone, and Ivermectin with the GABAA Receptor: Evidence for Overlapping Intersubunit Binding Modes” (PLoS ONE, 2015).

Legend:
α1β1γ2 GABAA receptor = target: T1, α1β1γ2 GABAA receptor (Homo sapiens, UniProt P14867+P18505+P18507); assay: Two-electrode voltage-clamp recording of GABAA receptors expressed in Xenopus oocytes; format: cell-based
T1 construct: GeneCopoeia (γ2 cDNA); host or cells: Xenopus laevis oocytes injected with cRNAs, ratio α1:β1:γ2 1:1:2
Description: The cDNAs encoding human GABAA receptor α1 and β1 subunits were acquired from American Type Culture Collection (ATCC, Manassas, Virginia), while those encoding γ2 subunits were acquired from GeneCopoeia (Rockville, Maryland). Restriction enzymes for the cDNAs came from New England Biolabs (Ipswich, MA).
HindIII-digested and XholI-digested DNA templates encoding human α1, β1, or γ2 GABAA receptor subunits (4 μg) were transcribed through the mMESSAGE mMACHINE T7 kit from Ambion (Austin, TX). […] The solution was then treated with RNase-free DNase I and precipitated with lithium chloride. The cRNAs were dissolved in double-distilled diethyl-pyrocarbonate (DEPC) treated water to a final concentration of ~ 1–2 μg/ μL. Subunit combinations were aliquoted for the specific receptor type with total concentration remaining ~ 1–2 μg/ μL.
(§1) X. laevis were anesthetized by placing them in solution of 1 g tricaine methanesulfonate (MS222) per 500 mL in de-chlorinated water. A small incision in the abdomen was made 1 cm away from and parallel to the midline and lobes of ovary were removed. The lobes were gently agitated at room temperature with collagenase (2 mg/mL) in calcium free OR-2 (82.5 mM NaCl, 2.5 mM KCl, 1 mM MgCl2, 5 mM HEPES, pH adjusted to 7.6 with NaOH) until the ovarian epithelium and the follicular cell layer were removed (~2 hrs). Oocytes were checked for proper size and shape, color, and for the presence of distinct animal and vegetal poles. Viable oocytes were placed in ND96 solution (96 mM NaCl, 2mM KCl, 1 mM MgCl2, 1 mM CaCl2, 5 mM HEPES, pH adjusted to 7.6 with NaOH) and the oocytes were injected with 46 nL cRNAs (1–2 μg/μL) expressing the α1β1γ2 construct using a digital microdispenser (Drummond ‘Nanoject II’), with the ratio α1: β1: γ2 1:1:2. […] Injected oocytes were incubated at 18°C in a sterile solution containing Leibovitz L-15 Medium supplemented with 10 mM HEPES, 50 mg/L gentamicin and 50 mg/L tetracycline at pH 7.4.
After 24 h following injections, oocytes were placed in a recording chamber perfused continuously with ND96. All drugs were perfused into the chamber through a gravity flow system (~5 mL/min). Oocytes were impaled with two 3 M KCl-filled glass microelectrodes (~ 1–2 MΩ). Oocytes were then voltage-clamped at -60 mV with a Model OC-725C Oocyte Clamp (Warner Instruments, Hamden, CT). Currents were recorded using the iWorx LabScribe v1.959 software. The peak amplitudes of the responses were used for data analysis.
Oocytes were perfused with ND96 between trials until current returned to baseline (approximately 10–15 minutes).
Graph Pad Prism, version 5.00 (La Jolla, CA), was used for all statistical analysis of two-electrode voltage-clamp data and for fitting the curves by nonlinear regression for determinations of EC50/IC50, min and max response values, and Hill coefficients. To determine the type of competition, a Schild plot analysis was applied to the competitive binding data, utilizing a linear regression fit.

uninjected oocytes = assay: Two-electrode voltage-clamp recording of uninjected oocytes; format: cell-based, Xenopus laevis; conditions: data not shown
Description: as §1
After 24 h following injections, oocytes were placed in a recording chamber perfused continuously with ND96. All drugs were perfused into the chamber through a gravity flow system (~5 mL/min). […] Currents were recorded using the iWorx LabScribe v1.959 software. […]

T1 sequence (P14867 28-456): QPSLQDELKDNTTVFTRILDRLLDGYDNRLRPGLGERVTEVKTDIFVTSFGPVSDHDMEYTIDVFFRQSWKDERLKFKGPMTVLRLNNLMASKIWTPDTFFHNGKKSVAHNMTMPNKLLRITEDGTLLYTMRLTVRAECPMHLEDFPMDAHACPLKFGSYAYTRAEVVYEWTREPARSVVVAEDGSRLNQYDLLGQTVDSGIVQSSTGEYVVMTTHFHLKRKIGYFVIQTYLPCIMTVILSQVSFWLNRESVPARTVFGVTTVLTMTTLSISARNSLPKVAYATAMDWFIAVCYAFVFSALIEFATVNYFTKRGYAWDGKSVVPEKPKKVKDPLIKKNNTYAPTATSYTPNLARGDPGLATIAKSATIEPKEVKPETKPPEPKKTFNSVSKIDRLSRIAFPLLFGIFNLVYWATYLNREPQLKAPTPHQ
T1 sequence (P18505 26-474): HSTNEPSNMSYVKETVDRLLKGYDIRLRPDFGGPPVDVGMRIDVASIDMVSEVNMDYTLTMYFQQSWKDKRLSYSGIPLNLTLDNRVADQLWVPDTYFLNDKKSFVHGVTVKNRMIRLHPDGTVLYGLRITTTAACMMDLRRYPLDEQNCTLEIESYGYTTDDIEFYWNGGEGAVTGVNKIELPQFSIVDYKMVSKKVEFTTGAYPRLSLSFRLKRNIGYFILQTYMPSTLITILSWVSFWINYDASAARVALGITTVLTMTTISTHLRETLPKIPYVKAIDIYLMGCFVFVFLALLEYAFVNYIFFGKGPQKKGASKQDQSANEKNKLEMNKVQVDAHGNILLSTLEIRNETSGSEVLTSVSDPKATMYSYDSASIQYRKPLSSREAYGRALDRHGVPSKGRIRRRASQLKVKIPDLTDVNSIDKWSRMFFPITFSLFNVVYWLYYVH
T1 sequence (P18507 40-475): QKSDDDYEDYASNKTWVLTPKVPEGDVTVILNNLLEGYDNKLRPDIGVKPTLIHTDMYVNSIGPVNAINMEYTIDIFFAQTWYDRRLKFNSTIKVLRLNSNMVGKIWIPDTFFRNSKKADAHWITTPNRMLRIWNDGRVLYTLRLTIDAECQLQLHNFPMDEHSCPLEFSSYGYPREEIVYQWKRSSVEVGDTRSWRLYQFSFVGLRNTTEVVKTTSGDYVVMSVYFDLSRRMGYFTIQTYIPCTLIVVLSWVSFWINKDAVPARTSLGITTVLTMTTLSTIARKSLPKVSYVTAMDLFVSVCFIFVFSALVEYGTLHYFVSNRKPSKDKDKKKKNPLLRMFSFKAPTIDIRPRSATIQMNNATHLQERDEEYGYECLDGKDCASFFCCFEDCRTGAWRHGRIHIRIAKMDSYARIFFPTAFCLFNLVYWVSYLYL

CCC(C)C1OC2(CCC1C)CC1CC(CC=C(C)C(OC3CC(OC)C(OC4CC(OC)C(O)C(C)O4)C(C)O3)C(C)C=CC=C3COC4C(O)C(C)=CC(C(=O)O1)C34O)O2 (stereo not drawn) [IVM, ivermectin]
EC50 (α1β1γ2 GABAA receptor): 7.1 ± 0.8 µM | Hill coefficient of activation by IVM (α1β1γ2 GABAA receptor; absence of GABA): 1.9 ± 0.4 | concentration of apparent maximal effect of IVM (α1β1γ2 GABAA receptor; absence of GABA): 20 to 50 µM | effect of IVM on uninjected oocytes (uninjected oocytes): unaffected

CC(=O)[C@H]1CC[C@H]2[C@@H]3CC[C@H]4C[C@H](O)CC[C@]4(C)[C@H]3CC[C@]12C [ALLOP, 3α-hydroxy-5α-pregnan-20-one]
EC50 (α1β1γ2 GABAA receptor): 0.9 ± 0.1 µM

CN1C(=O)CN=C(c2ccccc2)c2cc(Cl)ccc21 [diazepam]
effect on GABA response (check of γ subunit incorporation) (α1β1γ2 GABAA receptor; oocytes injected with α1:β1:γ2 1:1:2): potentiation
